Reference: patent US20210038587A1, “METHODS AND COMPOSITIONS FOR TREATING NON-ERK MAPK PATHWAY INHIBITOR-RESISTANT CANCERS” (BIOMED VALLEY DISCOVERIES, INC., priority 2013, published 2021)
Marks after values point to notes of the source that are not given here.

Columns and labels:
[1] = tested on: A375 xenografts; experiment: Antitumor activity in A375 xenografts, monotherapy; format: in vivo, mice; settings: 14 days
Protocol: For measurement of antitumor activity in A375 xenografts, xenografts were initiated with A375 cells maintained by serial subcutaneous transplantation in female athymic nude mice. Each test mouse received an A375 tumor fragment (1 mm^3) implanted subcutaneously in the right flank. Once tumors reached target size (80-120 mm^3), animals were randomized into treatment and control groups, and drug treatment was initiated.
Oral temozolomide was administered as a positive reference compound at 75 or 175 mg/kg once daily (QD) for a total of five treatments (QD×5).

[2] = molecular target: P38γ (Homo sapiens, UniProt P53778); experiment: Kinase counter-screen, Ki; format: biochemical; settings: apparent Ki
Text: (§1) The ATP concentrations were approximately equal to the Km in all assays.

[3] = Phase I dose-escalation study: safety, DLT, MTD, RP2D; settings: in vivo
Text: Patients aged ≥18 years were eligible for participation if they had noncurable, histologically confirmed metastatic or advanced stage malignant tumors; an ECOG performance status of 0 or 1; adequate renal, hepatic, bone marrow, and cardiac function; and a life expectancy ≥3 months. Patients may have received up to 2 prior lines of chemotherapy for their metastatic disease. Exclusion criteria were known uncontrolled brain metastases; gastrointestinal conditions which could impair absorption of study medication; history or current evidence/risk of retinal vein occlusion or central serous retinopathy; and concurrent therapy with drugs known to be strong inhibitors of CYP1A2, CYP2D6, and CYP3A4 or strong inducers of CYP3A4. All participants provided informed consent prior to initiation of any study procedures.
The present invention presents data from an open-label, multicenter phase I study to assess the safety, pharmacokinetics, and pharmacodynamics of escalating doses of BVD-523 in patients with advanced malignancies.
Patients received BID oral doses until disease progression, unacceptable toxicity, or a clinical observation satisfying another withdrawal criterion. Dose escalations occurred in up to 100% increments in single-patient cohorts until 1 patient experienced a ≥Grade 2 toxicity (excluding alopecia or diarrhea). Cohorts were then expanded to at least 3 patients each and subsequent dose-escalation increments were reduced from up to 100% to a maximum of 50%. When at least 1 patient in a 3-patient cohort experienced a DLT, up to 3 additional patients were treated at this dose level. When more than 1 DLT occurred in ≤6 patients, this dose level was defined as the nontolerated dose and dose escalation was stopped. Intrapatient dose escalation was allowed, provided the patients receiving the highest current dose had been observed for at least 3 weeks and dose-limiting side effects were reported in fewer than 2 of 6 patients assigned to a given dose. Patients experiencing DLTs or unacceptable toxicity had their treatment interrupted until the toxicity returned to ≤Grade 1.
The RP2D could be as high as the MTD and was determined in discussion with the clinical investigators, the medical monitor, and the sponsor. Observations related to pharmacokinetics, pharmacodynamics, and any cumulative toxicity observed after multiple cycles were included in the rationale supporting the RP2D.
The severity of AEs were graded according to the National Cancer Institute Common Terminology Criteria for Adverse Events, Grading Scale, version 4.
Safety evaluations were conducted at baseline, on Days 8, 15, 22, 29, 36, and 43, and, in patients who continued treatment, every 3 weeks or if clinically indicated thereafter. Each evaluation included a physical examination and clinical laboratory studies. Electrocardiograms were repeated if clinically significant and at the discretion of the investigator. The investigators made judgments regarding whether or not AEs were related to study drug and followed up until resolution or stabilization, or the AE was judged to be no longer clinically significant.

[4] = tested on: ERK1/2 phosphorylation in Colo205 xenografts; experiment: pERK1/2 in Colo205 xenograft tumors (ITIS mass spectrometry, IHC); format: in vivo, mice; settings: single 100 mg/kg oral dose
Protocol: For measurement of ERK1/2 Isotope-Tagged Internal Standard (ITIS) Mass Spectrometry in Colo205 Xenografts, frozen tumors were lysed in 10 volumes of ice cold lysis buffer (10 mM TRIS-HCl, pH 8.0, 10 mM MgCl2, 1% (v/v) Triton X-100, Complete™ Protease Inhibitor Cocktail [Roche, cat. No. 1836170], Phosphatase Inhibitor Cocktail I [Sigma, cat. No. P-2850], Phosphatase Inhibitor Cocktail II [Sigma cat. No. 5726], and benzonase [Novagen cat. No. 70664]). Lysates were clarified by centrifugation (100,000×g for 60 minutes at 4° C.) and the supernatants adjusted to 2 mg/mL with lysis buffer. ERK1 was immunoprecipitated using agarose-coupled and pan-anti-ERK1 (Santa Cruz Biotechnology cat. No. sc-93ac) antibodies. […]
For ITIS analysis, digested samples were spiked with heavy-atom labeled peptide standards and fractional phosphorylation was quantified by coupled liquid chromatography-tandem mass spectrometry (MS). […]
For analysis of pERK IHC in Colo205 xenografts, xenograft tumors were processed overnight in 70% through 100% graded ethanols, cleared in two changes of xylene, infiltrated with paraffin, and embedded into paraffin blocks. […] A single section from each animal and dose group was probed with anti-phospho p42/p44 MAPK antibody (pERK [1:100], CST; Cat no. 9101; Lot no. 16), counterstained with hematoxylin, and then analyzed microscopically using a Zeiss Axioplan 2 microscope. […]

[5] = molecular target: CDK5/p35 (Homo sapiens, UniProt Q00535); experiment: Kinase counter-screen, Ki; format: biochemical; settings: apparent Ki
Text: as §1

[6] = tested on: PMA stimulated ERK activity (RSK-1 phosphorylation); experiment: Phase I study: pharmacodynamic target inhibition (pRSK in patient whole blood); format: in vivo; settings: Homo sapiens, 360 h, prior to Day 15 dosing

Chain of P38γ (P53778 whole entry): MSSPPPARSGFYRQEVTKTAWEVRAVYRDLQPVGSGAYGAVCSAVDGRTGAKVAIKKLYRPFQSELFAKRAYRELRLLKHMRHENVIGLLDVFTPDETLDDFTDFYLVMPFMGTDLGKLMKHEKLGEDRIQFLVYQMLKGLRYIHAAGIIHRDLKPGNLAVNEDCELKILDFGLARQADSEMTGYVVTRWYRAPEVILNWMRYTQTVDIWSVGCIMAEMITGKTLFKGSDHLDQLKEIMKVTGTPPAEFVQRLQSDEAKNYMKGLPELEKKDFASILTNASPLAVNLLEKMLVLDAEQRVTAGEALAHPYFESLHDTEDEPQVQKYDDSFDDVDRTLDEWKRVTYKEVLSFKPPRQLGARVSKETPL
Chain of CDK5/p35 (Q00535 whole entry, species assumed): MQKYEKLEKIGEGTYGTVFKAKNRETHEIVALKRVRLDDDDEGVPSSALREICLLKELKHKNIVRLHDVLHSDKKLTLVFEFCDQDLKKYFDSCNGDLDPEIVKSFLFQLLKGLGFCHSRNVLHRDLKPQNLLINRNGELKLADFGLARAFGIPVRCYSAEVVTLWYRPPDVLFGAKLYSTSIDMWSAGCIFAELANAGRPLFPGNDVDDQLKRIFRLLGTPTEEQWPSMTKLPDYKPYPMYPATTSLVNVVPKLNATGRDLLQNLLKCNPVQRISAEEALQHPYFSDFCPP
Chain of CDK5/p35 (Q15078 whole entry partner, species assumed): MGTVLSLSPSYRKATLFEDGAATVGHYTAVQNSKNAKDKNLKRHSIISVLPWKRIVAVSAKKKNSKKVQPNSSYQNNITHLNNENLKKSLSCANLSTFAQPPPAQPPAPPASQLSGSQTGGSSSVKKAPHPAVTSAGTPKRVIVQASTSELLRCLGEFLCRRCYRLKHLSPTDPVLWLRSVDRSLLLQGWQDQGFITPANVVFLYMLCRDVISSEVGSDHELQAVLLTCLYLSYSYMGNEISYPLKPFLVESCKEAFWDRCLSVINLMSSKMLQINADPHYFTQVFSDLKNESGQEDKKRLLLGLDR

For CC(C)Nc1cc(-c2c[nH]c(C(=O)N[C@H](CO)c3cccc(Cl)c3)c2)c(Cl)cn1 [BVD-523], the “tumor growth inhibition (TGI)” value ([1]; 50 mg/kg BID p.o.) was 71%, the “tumor growth inhibition (TGI)” value ([1]; 100 mg/kg BID p.o.) was 99% and the Ki [2] was 450 nM. The “Anemia, Any grade” value ([3]; human) was 5 (19) n (%), the “Anemia, Grade 1 or 2” value ([3]; human) was 3 (11) n (%) and the “Anemia, Grade 3” value ([3]; human) was 2^ (7) n (%). The “Anorexia, Any grade” value ([3]; human) was 6 (22) n (%), the “Anorexia, Grade 1 or 2” value ([3]; human) was 6 (22) n (%) and the “Anorexia, Grade 3” value ([3]; human) was 0 n (%). The “Blurry/dimmed vision, Any grade” value ([3]; human) was 3 (11) n (%), the “Blurry/dimmed vision, Grade 1 or 2” value ([3]; human) was 3 (11) n (%) and the “Blurry/dimmed vision, Grade 3” value ([3]; human) was 0 n (%). The “Constipation, Any grade” value ([3]; human) was 3 (11) n (%), the “Constipation, Grade 1 or 2” value ([3]; human) was 3 (11) n (%) and the “Constipation, Grade 3” value ([3]; human) was 0 n (%). For the same compound, the “Dehydration, Any grade” value ([3]; human) was 5 (19) n (%), the “Dehydration, Grade 1 or 2” value ([3]; human) was 3 (11) n (%) and the “Dehydration, Grade 3” value ([3]; human) was 2^ (7) n (%). For the same compound, the “Diarrhea, Any grade” value ([3]; human) was 16 (59) n (%), the “Diarrhea, Grade 1 or 2” value ([3]; human) was 12 (44) n (%) and the “Diarrhea, Grade 3” value ([3]; human) was 4^ (15) n (%). For the same compound, the “Fatigue, Any grade” value ([3]; human) was 17 (63) n (%), the “Fatigue, Grade 1 or 2” value ([3]; human) was 16 (59) n (%) and the “Fatigue, Grade 3” value ([3]; human) was 1^ (4) n (%). For the same compound, the “Fever, Any grade” value ([3]; human) was 3 (11) n (%), the “Fever, Grade 1 or 2” value ([3]; human) was 3 (11) n (%) and the “Fever, Grade 3” value ([3]; human) was 0 n (%). The “Grade 3 treatment-related diarrhea” value ([3]; human) was 15%, the “Grade 3 treatment-related increased liver function tests” value ([3]; human) was 11% and the “Increased LFTs (ALT and AST), Any grade” value ([3]; human) was 4 (14) n (%). The “Increased LFTs (ALT and AST), Grade 1 or 2” value ([3]; human) was 1 (4) n (%), the “Increased LFTs (ALT and AST), Grade 3” value ([3]; human) was 3^ (11) n (%) and the “Increased creatinine, Any grade” value ([3]; human) was 5 (19) n (%). For the same compound, the “Increased creatinine, Grade 1 or 2” value ([3]; human) was 4 (15) n (%), the “Increased creatinine, Grade 3” value ([3]; human) was 1^ (4) n (%) and the MTD ([3]; human) was 600 mg BID. For the same compound, the “Nausea, Any grade” value ([3]; human) was 14 (52) n (%), the “Nausea, Grade 1 or 2” value ([3]; human) was 14 (52) n (%) and the “Nausea, Grade 3” value ([3]; human) was 0 n (%). The “Peripheral edema, Any grade” value ([3]; human) was 4 (15) n (%), the “Peripheral edema, Grade 1 or 2” value ([3]; human) was 4 (15) n (%) and the “Peripheral edema, Grade 3” value ([3]; human) was 0 n (%). The “Pruritus, Any grade” value ([3]; human) was 6 (22) n (%), the “Pruritus, Grade 1 or 2” value ([3]; human) was 6 (22) n (%) and the “Pruritus, Grade 3” value ([3]; human) was 0 n (%). The RP2D ([3]; human) was 600 mg BID, the “Rash, Any grade” value ([3]; human) was 20 (74) n (%) and the “Rash, Grade 1 or 2” value ([3]; human) was 18 (67) n (%). The “Rash, Grade 3” value ([3]; human) was 2^b (7) n (%), the “Vomiting, Any grade” value ([3]; human) was 8 (30) n (%) and the “Vomiting, Grade 1 or 2” value ([3]; human) was 7 (26) n (%). The “Vomiting, Grade 3” value ([3]; human) was 1^ (4) n (%), the “dose reductions resulting from AEs” value ([3]; human) was 3 patients and the “patients with Grade 4 or 5 AEs possibly or definitely related” value ([3]; human) was “^aNo patients experienced Grade 4 or 5 AEs that were possibly or definitely related to BVD-523 treatment”. The “patients with treatment-related AEs of any grade” value ([3]; human) was 26 of 27, the “patients with treatment-related Grade 3 events” value ([3]; human) was 13 of 27 and the “related central serous retinopathy events” value ([3]; human) was “^cOne Grade 1 event of related central serous retinopathy”. For the same compound, the “total serious AEs (SAEs)” value ([3]; human) was 28, the treatment-related diarrhea ([3]; human) was 52% and the treatment-related fatigue ([3]; human) was 59%. For the same compound, the treatment-related nausea ([3]; human) was 52%, the “treatment-related rash (predominately acneiform)” value ([3]; human) was 70% and the “patients with serious AEs (SAEs)” value [3] was “Fourteen”. For the same compound, the “time of maximal ERK1/2 phosphorylation post-dose” value [4] was 8 h, the “time of return of pERK1/2 to pre-dose levels” value [4] was at most 24 hours and the Ki [5] was 90 nM. The inhibition at 10 mg ([6]; 10 mg BID) was 0% and the inhibition at 900 mg ([6]; 900 mg BID) was 93 ± 8%.
